From US8835644B2, “Broad spectrum benzothiophene-nitrothiazolide and other antimicrobials” (University of Virginia Patent Foundation, priority 2009, dated 2014)
In brackets after ≈: the same amount, converted by molar mass. Where a name gives a salt, the structure may show the parent alone. Read-outs that look alike come from different tables or passages of the source. Marks after values point to notes of the source that are not given here.

What was measured:
[1] = tested on: E. coli; test: MIC testing by broth dilution, E. coli plank; type: cell-based, Escherichia coli
Method in brief: (§1)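 Planktonic E. coli (LB) and S. epidermidis (Trypticase Soy), plus C. jejuni (Brain Heart Infusion), were exposed to a dilution series starting at 32 μg/ml. The C. difficile values are anaerobic zone ratios against NTZ.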

[2] = tested on: H. pylori; test: MIC testing by broth dilution, H. pylori; type: cell-based, Helicobacter pylori
Method in brief: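 Helicobacter pylori was tested using a standard broth dilution method in 96 well microplates, each well holding a standard dilution of the organism in 100 microliters of Brain Heart Infusion. Compounds started at 32 μg/ml in 200 microliters in the first well and were serially diluted from 32 to 0.06. Wells were read visually at 24 h, and the MIC was the well with no growth.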

[3] = tested on: C. jejuni; test: MIC testing by broth dilution, C. jejuni; type: cell-based, Campylobacter jejuni
Method in brief: as §1

[4] = tested on: PFOR (pyruvate ferredoxin oxidoreductase); test: Direct PFOR enzyme assay; type: biochemical
Experimental: Representative compounds of the invention were tested in a series of assays against a series of organisms as described above. […] The organisms tested include, C. difficile, H. pylori, C. jejuni, MRSA, S. epidermidis, and E. coli. S. epidermidis and E. coli were tested in the plank and biofilm assay. A disk diffusion assay was also used for C. difficile. Direct PFOR enzyme assays were also performed. All analogues and derivatives were not tested on every organism in every type of assay (the “-” in each table means that it was not tested).

[5] = tested on: MRSA; test: MIC testing by broth dilution, MRSA; type: cell-based, Staphylococcus aureus
Method in brief: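 Values are broth-dilution MICs, defined as the well showing no growth on visual reading after 24 h; the tested range was 32 to 0.06 μg/ml, in organism-specific media (LB, Trypticase Soy, Brain Heart Infusion). The C. difficile entries come instead from anaerobic Kirby-Bauer disk zones, normalised to NTZ.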

[6] = tested on: C. difficile; test: Disk diffusion (Kirby Bower), C. difficile; type: cell-based, Clostridium difficile; details: for Disk Diffusion (%) C. difficile: zone of inhibited growth as relative ratio to the zone for NTZ
Method in brief: as §1

[7] = tested on: S. epidermidis; test: MIC testing by broth dilution, S. epidermidis plank; type: cell-based, Staphylococcus epidermidis
Method in brief: as §1

[8] = Escherichia coli, 24 h, read-out: MIC (μM) E. coli Plank
[9] = Helicobacter pylori, 24 h, read-out: MIC (μM) H. pylori
[10] = Campylobacter jejuni, 24 h, read-out: MIC (μM) C. jejuni
[11] = 2-amino-3,5-dinitrothiophene analogues table, read-out: MIC H. pylori
[12] = 2-amino-3,5-dinitrothiophene analogues table, read-out: MIC C. jejuni
[13] = * biphasic initial inhibition followed by uninhibited rate, ** caused some precipitant in extract
[14] = 2-amino-3,5-dinitrothiophene analogues table, read-out: MIC MRSA
[15] = planktonic, 2-amino-3,5-dinitrothiophene analogues table, read-out: MIC S. epidermidis Plank
[16] = Helicobacter pylori, read-out: MIC H. pylori
[17] = Campylobacter jejuni, read-out: MIC C. jejuni
[18] = Staphylococcus aureus, MRSA, read-out: MIC MRSA
[19] = Staphylococcus epidermidis, read-out: MIC S. epidermidis Plank
[20] = Staphylococcus aureus, MRSA, 24 h, read-out: MIC (μM) MRSA
[21] = Staphylococcus epidermidis, 24 h, read-out: MIC (μM) S. epidermidis Plank

O=C(Nc1ncc([N+](=O)[O-])s1)c1ccsc1 [VPC16a1008]
MIC ([1]; planktonic, Thiophene analogues table, read-out: MIC E. coli Plank): 125.4 µM (≈ 32 µg/mL) | MIC ([2]; Thiophene analogues table, read-out: MIC H. pylori): 0.7 µM (≈ 0.179 µg/mL) | MIC ([3]; Thiophene analogues table, read-out: MIC C. jejuni): 5.9 µM (≈ 1.51 µg/mL) | PFOR inhibition relative to nitazoxanide (=100) ([4]; Thiophene analogues table): 96% | MIC ([5]; Thiophene analogues table, read-out: MIC MRSA): 23.5 µM (≈ 6 µg/mL) | Disk Diff (%) C. difficile ([6]; Nitazoxanide = 100, Thiophene analogues table): 100% | MIC ([7]; planktonic, Thiophene analogues table, read-out: MIC S. epidermidis Plank): 15.7 µM (≈ 4.01 µg/mL)

O=C(Nc1ncc([N+](=O)[O-])s1)c1cccnc1F [VPC16a1052, 2-Fluoro-N-(5-nitrothiazol-2-yl)nicotinamide]
MIC [1, 8]: 119 µM (≈ 32 µg/mL) | MIC [2, 9]: 3.7 µM (≈ 0.992 µg/mL) | MIC [3, 10]: 7.5 µM (≈ 2.01 µg/mL) | PFOR inhibition relative to nitazoxanide (=100) [4]: 91% | Disk Diffusion (%) C. difficile [6]: 100%

O=C(Nc1ncc([N+](=O)[O-])s1)c1ccc(Cl)c(C(F)(F)F)c1 [VPC16a1060]
MIC [1, 8]: 91 µM (≈ 32 µg/mL) | MIC [2, 9]: 2.8 µM (≈ 0.985 µg/mL) | MIC [3, 10]: 2.8 µM (≈ 0.985 µg/mL) | PFOR inhibition relative to nitazoxanide (=100) [4]: 63* % | Disk Diffusion (%) C. difficile [6]: 89%

O=C(Nc1ncc([N+](=O)[O-])s1)c1ccc(-c2ccc(F)cc2)o1 [VPC16a1104]
MIC ([2]; Furan analogues table, read-out: MIC H. pylori): 1.0 µM (≈ 0.333 µg/mL) | MIC ([3]; Furan analogues table, read-out: MIC C. jejuni): 96.0 µM (≈ 32 µg/mL) | PFOR inhibition relative to nitazoxanide (=100) ([4]; Furan analogues table): 81% | MIC ([5]; Furan analogues table, read-out: MIC MRSA): 96.0 µM (≈ 32 µg/mL) | MIC ([7]; planktonic, Furan analogues table, read-out: MIC S. epidermidis Plank): 96.0 µM (≈ 32 µg/mL)

O=C(Nc1sc([N+](=O)[O-])cc1[N+](=O)[O-])c1ccc(Br)o1 [VPC16b2023]
MIC [2, 11]: 2.1 µM (≈ 0.76 µg/mL) | MIC [3, 12]: 2.8 µM (≈ 1.01 µg/mL) | PFOR inhibition relative to nitazoxanide (=100) [4, 13]: 94** % | MIC [5, 14]: 33.1 µM (≈ 12 µg/mL) | MIC [7, 15]: 88.4 µM (≈ 32 µg/mL)

O=C(Nc1sc([N+](=O)[O-])cc1[N+](=O)[O-])c1ccc(Br)s1 [VPC16b2025]
MIC [2, 11]: 2.6 µM (≈ 0.983 µg/mL) | MIC [3, 12]: 2.6 µM (≈ 0.983 µg/mL) | PFOR inhibition relative to nitazoxanide (=100) [4, 13]: 98** % | MIC [5, 14]: 63.5 µM (≈ 24 µg/mL) | MIC [7, 15]: 15.9 µM (≈ 6.01 µg/mL)

O=C(Nc1sc([N+](=O)[O-])cc1[N+](=O)[O-])c1cc(C(F)(F)F)ccc1Cl [VPC16b2026, 2-Chloro-N-(3,5-dinitrothiophen-2-yl)-5-(trifluoromethyl)benzamide]
MIC [2, 16]: 0.8 µM (≈ 0.317 µg/mL) | MIC [3, 17]: 2.5 µM (≈ 0.989 µg/mL) | PFOR inhibition relative to nitazoxanide (=100) [4, 13]: 100% | MIC [5, 18]: 30.3 µM (≈ 12 µg/mL) | MIC [7, 19]: 15.2 µM (≈ 6.01 µg/mL)

O=C(Nc1sc([N+](=O)[O-])cc1[N+](=O)[O-])c1cccc(C(F)(F)F)c1Cl [VPC16b2028]
MIC [2, 11]: 0.8 µM (≈ 0.317 µg/mL) | MIC [3, 12]: 1.9 µM (≈ 0.752 µg/mL) | PFOR inhibition relative to nitazoxanide (=100) [4, 13]: 113% | MIC [5, 14]: 30.3 µM (≈ 12 µg/mL) | MIC [7, 15]: 30.3 µM (≈ 12 µg/mL)

NCCOc1ccccc1C(=O)Nc1sc([N+](=O)[O-])cc1[N+](=O)[O-] [VPC16b2031, 2-(2-Aminoethoxy)-N-(3,5-dinitrothiophen-2-yl)benzamide]
MIC [2, 16]: 1.9 µM (≈ 0.669 µg/mL) | MIC [3, 17]: 1.3 µM (≈ 0.458 µg/mL) | PFOR inhibition relative to nitazoxanide (=100) [4, 13]: 162% | MIC [5, 18]: 82.3 µM (≈ 29 µg/mL) | MIC [7, 19]: 25.7 µM (≈ 9.05 µg/mL)

O=C(Nc1nc(Cl)c([N+](=O)[O-])s1)c1cccs1 [VPC162089, N-(4-Chloro-5-nitrothiazol-2-yl)thiophene-2-carboxamide]
MIC ([1]; Escherichia coli, broth dilution, LB medium, 24 h, read-out: MIC (μM) E. coli Plank): 110 µM (≈ 32 µg/mL) | MIC ([2]; Helicobacter pylori, broth dilution, Brain Heart Infusion, 24 h, read-out: MIC (μM) H. pylori): 6.9 µM (≈ 2 µg/mL) | MIC ([3]; Campylobacter jejuni, broth dilution, Brain Heart Infusion, 24 h, read-out: MIC (μM) C. jejuni): 13.8 µM (≈ 4 µg/mL) | PFOR inhibition relative to nitazoxanide (=100) [4]: 93% | MIC ([5]; Staphylococcus aureus, MRSA, broth dilution, Trypticase Soy, 24 h, read-out: MIC (μM) MRSA): 110 µM (≈ 32 µg/mL) | MIC ([7]; Staphylococcus epidermidis, broth dilution, Trypticase Soy, 24 h, read-out: MIC (μM) S. epidermidis Plank): 82.8 µM (≈ 24 µg/mL)

NCCOc1ccsc1C(=O)Nc1ncc([N+](=O)[O-])s1 [VPC162125, 3-(2-Aminoethoxy)-N-(5-nitrothiazol-2-yl)thiophene-2-carboxamide hydrochloride]
MIC [1, 8]: 91.2 µM | MIC [2, 9]: 0.7 µM | MIC [3, 10]: 11.4 µM | PFOR inhibition relative to nitazoxanide (=100) [4]: 137% | MIC [5, 20]: 91.2 µM | MIC [7, 21]: 91.2 µM

NCCCc1ccccc1C(=O)Nc1ncc([N+](=O)[O-])s1 [VPC162134, 2-(3-Aminopropyl)-N-(5-nitrothiazol-2-yl)benzamide hydrochloride]
MIC [2, 9]: 2.9 µM | MIC [3, 10]: 17.5 µM | PFOR inhibition relative to nitazoxanide (=100) [4]: 144% | MIC [5, 20]: 93.3 µM | MIC [7, 21]: 93.3 µM
